Data on two compounds can be found in paper PMC9234961 (Journal of Medicinal Chemistry, 2022).

For one data set, the target named is DAT (Homo sapiens, UniProt Q01959). As to the kind of experiment: SAFETYScan Transporter, Blocker. The class given is cell-based. The source says:
(§1) Supplement jm1c02175_si_002.xlsx, sheet "SAFETYScan" | column: RC50 (uM); Max Response

Another data set has as its target T1, GR (Homo sapiens, UniProt P04150).
T1 sequence (P04150 1-777): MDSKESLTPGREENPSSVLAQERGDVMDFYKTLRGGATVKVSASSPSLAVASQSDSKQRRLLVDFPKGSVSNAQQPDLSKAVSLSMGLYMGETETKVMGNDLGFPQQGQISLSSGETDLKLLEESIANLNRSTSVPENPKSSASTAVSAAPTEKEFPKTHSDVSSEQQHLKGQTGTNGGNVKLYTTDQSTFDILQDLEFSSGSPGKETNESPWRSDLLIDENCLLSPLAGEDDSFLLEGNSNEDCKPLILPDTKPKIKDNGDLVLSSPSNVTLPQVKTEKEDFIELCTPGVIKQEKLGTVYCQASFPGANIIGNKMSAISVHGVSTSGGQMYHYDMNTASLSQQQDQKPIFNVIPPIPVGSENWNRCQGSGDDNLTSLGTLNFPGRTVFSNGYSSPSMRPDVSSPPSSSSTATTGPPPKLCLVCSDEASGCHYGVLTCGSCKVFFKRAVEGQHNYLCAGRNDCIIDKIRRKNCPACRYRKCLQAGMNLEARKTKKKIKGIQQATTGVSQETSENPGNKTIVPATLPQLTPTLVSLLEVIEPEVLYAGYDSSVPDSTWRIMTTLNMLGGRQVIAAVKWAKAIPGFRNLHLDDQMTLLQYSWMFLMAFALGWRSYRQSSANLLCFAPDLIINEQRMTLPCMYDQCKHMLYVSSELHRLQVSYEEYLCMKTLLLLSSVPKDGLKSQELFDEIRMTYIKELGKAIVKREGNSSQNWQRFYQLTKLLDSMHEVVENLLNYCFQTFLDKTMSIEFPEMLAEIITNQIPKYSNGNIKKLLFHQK
Put plainly: SAFETYScan NHR Protein Interaction, Agonist. The class given is cell-based.
Description: as §1

The next data set has as its target T2, HTR3A (Homo sapiens, UniProt P46098).
T2 sequence (P46098 24-478): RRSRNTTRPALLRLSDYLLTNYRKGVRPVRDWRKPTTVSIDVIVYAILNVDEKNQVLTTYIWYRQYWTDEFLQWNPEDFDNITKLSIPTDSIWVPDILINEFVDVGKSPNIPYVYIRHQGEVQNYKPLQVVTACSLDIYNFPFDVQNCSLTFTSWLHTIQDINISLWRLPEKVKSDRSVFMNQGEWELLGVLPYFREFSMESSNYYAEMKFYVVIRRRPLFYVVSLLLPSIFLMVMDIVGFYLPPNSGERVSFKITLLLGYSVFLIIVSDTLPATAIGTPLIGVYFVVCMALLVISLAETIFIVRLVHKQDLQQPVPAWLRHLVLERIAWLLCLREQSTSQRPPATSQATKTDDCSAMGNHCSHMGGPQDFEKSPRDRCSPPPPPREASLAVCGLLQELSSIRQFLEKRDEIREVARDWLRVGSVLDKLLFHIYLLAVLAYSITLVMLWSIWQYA
As to the kind of experiment: SAFETYScan Ion Channel, Opener. Type of data set: cell-based.
Description: as §1

The next data set concerns the target NMDAR (1A/2B) (Homo sapiens, UniProt Q05586+Q13224). As to the kind of experiment: SAFETYScan Ion Channel, Opener. The class given is cell-based.
Description: as §1

Another data set has as its target GABAA (Homo sapiens, UniProt P14867+P18507+P47870). As to the kind of experiment: SAFETYScan Ion Channel, Opener. The class given is cell-based. Particulars: read-out: Max Response.
Description: as §1

For the next data set, the target named is nAChR(a4/b2) (Homo sapiens, UniProt P17787+P43681). As to the kind of experiment: SAFETYScan Ion Channel, Opener. Type of data set: cell-based.
nAChR(a4/b2), sequence (P43681 29-627 limits assumed): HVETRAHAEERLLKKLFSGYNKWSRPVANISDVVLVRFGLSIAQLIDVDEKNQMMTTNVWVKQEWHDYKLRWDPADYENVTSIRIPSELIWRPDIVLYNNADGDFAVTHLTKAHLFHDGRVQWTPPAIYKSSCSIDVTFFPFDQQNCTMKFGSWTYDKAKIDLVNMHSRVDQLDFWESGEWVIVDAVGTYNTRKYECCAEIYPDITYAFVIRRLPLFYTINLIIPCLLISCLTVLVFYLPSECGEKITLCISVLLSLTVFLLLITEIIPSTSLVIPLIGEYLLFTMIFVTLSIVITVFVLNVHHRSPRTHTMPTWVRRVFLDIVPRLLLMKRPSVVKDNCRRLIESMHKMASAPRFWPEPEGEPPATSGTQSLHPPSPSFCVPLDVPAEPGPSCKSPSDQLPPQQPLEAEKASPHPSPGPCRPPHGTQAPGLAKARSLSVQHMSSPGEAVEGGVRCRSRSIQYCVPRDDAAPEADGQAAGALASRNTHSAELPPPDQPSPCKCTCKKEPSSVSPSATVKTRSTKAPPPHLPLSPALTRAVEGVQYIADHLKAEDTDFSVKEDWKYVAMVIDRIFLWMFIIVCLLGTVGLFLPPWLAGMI
nAChR(a4/b2), sequence (P17787 26-502): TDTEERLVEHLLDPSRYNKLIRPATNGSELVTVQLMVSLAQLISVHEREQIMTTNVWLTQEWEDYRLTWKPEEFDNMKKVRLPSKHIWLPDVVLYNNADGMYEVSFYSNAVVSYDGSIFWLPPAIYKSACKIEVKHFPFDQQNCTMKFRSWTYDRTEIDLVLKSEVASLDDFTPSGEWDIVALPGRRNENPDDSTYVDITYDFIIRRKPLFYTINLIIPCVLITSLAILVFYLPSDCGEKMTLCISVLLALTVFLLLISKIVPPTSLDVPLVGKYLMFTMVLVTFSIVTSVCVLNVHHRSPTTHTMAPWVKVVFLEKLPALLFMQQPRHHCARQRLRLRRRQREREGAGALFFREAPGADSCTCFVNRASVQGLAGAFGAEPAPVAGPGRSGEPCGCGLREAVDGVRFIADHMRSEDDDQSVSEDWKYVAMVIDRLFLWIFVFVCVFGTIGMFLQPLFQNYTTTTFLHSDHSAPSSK
Description: as §1

For another data set, the target named is KvLQT1/minK (Homo sapiens, UniProt P51787). Put plainly: SAFETYScan Ion Channel, Opener. Type of data set: cell-based.
KvLQT1/minK, sequence (P51787 whole entry): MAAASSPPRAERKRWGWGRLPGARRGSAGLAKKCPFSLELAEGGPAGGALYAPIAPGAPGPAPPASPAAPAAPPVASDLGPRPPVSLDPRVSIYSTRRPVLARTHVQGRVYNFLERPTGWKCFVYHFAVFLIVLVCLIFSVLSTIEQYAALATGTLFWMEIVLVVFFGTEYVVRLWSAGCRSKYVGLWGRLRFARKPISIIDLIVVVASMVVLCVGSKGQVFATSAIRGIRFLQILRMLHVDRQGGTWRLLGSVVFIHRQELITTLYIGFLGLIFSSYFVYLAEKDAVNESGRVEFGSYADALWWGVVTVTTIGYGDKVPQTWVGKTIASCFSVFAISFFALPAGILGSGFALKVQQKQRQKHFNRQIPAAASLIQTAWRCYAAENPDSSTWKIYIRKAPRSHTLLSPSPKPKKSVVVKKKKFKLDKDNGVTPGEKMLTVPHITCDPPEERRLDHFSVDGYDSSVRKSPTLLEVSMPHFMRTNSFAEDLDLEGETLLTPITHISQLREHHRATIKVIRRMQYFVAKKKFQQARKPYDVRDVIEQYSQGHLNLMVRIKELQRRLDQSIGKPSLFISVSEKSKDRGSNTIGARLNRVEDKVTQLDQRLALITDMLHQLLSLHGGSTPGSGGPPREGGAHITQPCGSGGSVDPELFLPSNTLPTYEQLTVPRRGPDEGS
Description: as §1

Data set [1] in a line: Microsomal clearance assay (HLM). Type of data set: in vitro ADME. Particulars: human liver microsomes, 1 μM compound. As to the method: 6. Supplementary experimental: in vitro DMPK assays
6.1 Microsomal clearance assay
Microsomal clearance was determined in female CD1 mice, female Sprague–Dawley rats, and mixed gender human liver microsomes obtained from BioIVT (Peterborough, U.K.) following incubation of 1 μM compound at 37 °C in 0.5 mg/mL microsomal protein, 3 mmol/L MgCl2, 1 mmol/L NADPH, 2.5 mmol/L and 10 mmol/L phosphate buffer (pH 7.4) (all purchased from Sigma-Aldrich, Gillingham, U.K). Reactions were started by addition of the cofactors following 10 min preincubation of microsomes with test compound and were terminated at −1, 0, 5, 10, 15, and 30 min with three volumes of ice-cold methanol containing internal standard. Samples were centrifuged at 2800g for 30 min at 4 °C and the supernatants analyzed.
Control incubations were prepared as above with omission of cofactors. Compound measurements were […]
separation with a 3 min gradient of 0.1% formic acid in methanol on a Kinetex C18, 50 × 2.1 mm 2.6 μm UPLC column (Phenomenex, Macclesfield, UK). […]
(Liver microsomes are a subcellular fraction often used to study metabolism.)

For data set [2], the target named is endogenous BCL6 in OCI-Ly1 cells (Homo sapiens, UniProt P41182). Put plainly: cell-based.
Data set [3] deals with kinases (468) (Homo sapiens, UniProt P16591). Particulars: FER; 1000 nM.
kinases (468) (Homo sapiens, UniProt P16591), sequence (P16591 whole entry): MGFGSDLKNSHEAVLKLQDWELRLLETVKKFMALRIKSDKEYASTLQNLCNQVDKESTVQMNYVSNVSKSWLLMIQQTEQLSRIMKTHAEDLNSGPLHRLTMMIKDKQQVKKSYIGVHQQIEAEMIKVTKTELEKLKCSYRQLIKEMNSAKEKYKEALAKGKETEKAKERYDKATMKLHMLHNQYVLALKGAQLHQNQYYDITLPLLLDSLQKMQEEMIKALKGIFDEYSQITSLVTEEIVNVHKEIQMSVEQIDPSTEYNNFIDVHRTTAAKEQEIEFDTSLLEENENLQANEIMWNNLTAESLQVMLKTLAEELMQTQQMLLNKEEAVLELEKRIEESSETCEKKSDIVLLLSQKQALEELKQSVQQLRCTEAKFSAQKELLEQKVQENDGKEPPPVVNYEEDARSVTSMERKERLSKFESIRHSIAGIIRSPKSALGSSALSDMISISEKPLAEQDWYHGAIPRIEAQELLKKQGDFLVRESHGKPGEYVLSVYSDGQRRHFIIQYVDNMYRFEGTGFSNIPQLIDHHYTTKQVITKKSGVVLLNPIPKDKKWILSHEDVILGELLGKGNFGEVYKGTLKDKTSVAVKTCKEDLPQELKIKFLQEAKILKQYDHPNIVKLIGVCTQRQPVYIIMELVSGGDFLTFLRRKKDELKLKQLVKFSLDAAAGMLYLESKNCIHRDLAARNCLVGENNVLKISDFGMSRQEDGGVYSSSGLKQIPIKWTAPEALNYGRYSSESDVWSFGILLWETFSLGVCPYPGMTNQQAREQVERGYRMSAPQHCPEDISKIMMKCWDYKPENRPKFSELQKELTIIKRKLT
The target of data set [4] is kinases (468) (Homo sapiens, UniProt P42336, I800L). The note with it: PIK3CA(I800L); 1000 nM.
For data set [5], the target named is kinases (468) (Homo sapiens, UniProt O14965). Particulars: AURKA; 1000 nM.
The target in data set [6] is kinases (468) (Homo sapiens, UniProt Q9H093). The note with it: kinase SNARK (Entrez NUAK2); compound concentration 1000 nM.
Data set [7] deals with kinases (468).

Several values for one entry are separate records, joined by “and”; a condition that tells them apart may be missing. Equal values may be shown once. Read-outs that look alike come from different tables or passages of the source.

As a reminder, the IC50 is the midpoint of a concentration-inhibition curve. In general, EC50 refers to the midpoint of the concentration-response curve. One may read the microsomal CLint as the rate of metabolic loss divided by the concentration. A high value points to faster metabolism. What is called Dmax is the largest share of the target that was removed.

DAT, sequence (Q01959 whole entry): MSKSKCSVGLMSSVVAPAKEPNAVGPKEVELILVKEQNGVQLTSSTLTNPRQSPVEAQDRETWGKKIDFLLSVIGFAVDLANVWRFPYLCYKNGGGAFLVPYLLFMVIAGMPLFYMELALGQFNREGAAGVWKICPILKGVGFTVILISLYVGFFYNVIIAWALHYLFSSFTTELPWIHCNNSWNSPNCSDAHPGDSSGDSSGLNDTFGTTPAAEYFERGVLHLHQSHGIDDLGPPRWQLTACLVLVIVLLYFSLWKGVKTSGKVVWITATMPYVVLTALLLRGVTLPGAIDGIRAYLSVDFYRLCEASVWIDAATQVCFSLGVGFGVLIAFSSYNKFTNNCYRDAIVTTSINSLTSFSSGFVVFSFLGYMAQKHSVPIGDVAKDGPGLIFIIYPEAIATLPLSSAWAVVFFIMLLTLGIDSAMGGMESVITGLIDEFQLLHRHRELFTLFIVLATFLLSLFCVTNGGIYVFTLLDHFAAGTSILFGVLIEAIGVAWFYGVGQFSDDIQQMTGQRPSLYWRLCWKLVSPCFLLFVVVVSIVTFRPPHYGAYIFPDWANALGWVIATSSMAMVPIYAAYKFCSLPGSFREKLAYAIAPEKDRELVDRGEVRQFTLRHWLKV
NMDAR (1A/2B), sequence (Q13224 27-1484, other chains not shown): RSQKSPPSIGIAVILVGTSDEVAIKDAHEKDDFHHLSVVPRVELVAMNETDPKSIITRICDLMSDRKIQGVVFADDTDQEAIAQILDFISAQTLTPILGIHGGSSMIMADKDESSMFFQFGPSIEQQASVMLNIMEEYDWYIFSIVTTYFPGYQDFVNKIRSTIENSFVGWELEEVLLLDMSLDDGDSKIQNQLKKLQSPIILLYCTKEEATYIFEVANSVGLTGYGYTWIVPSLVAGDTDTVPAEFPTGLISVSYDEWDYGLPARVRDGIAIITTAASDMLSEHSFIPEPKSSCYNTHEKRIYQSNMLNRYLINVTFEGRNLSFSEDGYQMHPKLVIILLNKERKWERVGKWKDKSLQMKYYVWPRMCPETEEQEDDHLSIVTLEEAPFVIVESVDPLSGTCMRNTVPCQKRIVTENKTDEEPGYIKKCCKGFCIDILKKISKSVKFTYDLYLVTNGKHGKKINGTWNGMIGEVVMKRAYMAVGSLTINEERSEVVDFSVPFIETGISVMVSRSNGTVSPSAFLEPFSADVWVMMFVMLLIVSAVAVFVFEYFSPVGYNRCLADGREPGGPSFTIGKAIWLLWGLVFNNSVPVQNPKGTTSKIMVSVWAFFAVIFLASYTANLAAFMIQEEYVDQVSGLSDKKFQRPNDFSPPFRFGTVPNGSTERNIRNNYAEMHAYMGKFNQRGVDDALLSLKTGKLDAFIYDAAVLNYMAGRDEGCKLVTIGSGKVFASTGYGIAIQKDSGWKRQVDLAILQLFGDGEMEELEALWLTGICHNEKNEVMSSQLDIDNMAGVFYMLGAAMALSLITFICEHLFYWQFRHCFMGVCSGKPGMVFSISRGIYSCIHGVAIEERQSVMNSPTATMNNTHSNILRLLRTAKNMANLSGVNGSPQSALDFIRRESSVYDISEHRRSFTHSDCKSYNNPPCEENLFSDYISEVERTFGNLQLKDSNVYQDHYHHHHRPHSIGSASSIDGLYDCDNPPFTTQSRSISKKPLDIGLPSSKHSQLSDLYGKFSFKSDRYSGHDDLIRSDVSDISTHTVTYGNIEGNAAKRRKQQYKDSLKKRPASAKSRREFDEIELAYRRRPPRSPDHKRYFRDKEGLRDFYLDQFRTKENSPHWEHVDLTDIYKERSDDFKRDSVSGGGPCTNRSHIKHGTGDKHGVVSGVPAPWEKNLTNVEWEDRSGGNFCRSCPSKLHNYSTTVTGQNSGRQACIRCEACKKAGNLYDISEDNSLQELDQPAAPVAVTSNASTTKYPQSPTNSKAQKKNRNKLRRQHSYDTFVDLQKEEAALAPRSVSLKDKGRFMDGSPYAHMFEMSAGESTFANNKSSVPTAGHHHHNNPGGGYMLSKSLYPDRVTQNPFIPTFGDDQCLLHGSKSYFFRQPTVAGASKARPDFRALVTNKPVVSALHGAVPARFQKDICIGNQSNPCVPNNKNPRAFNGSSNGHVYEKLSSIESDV

Take `C[C@H]1C[C@@H](O)CN(c2ncc(Cl)c(Nc3ccc4c(c3)c3c(c(=O)n4C)OCC(F)(F)[C@H](C4CC4)N3)n2)C1` [12a CCT373566, (S)-10-((5-Chloro-2-((3R,5S)-3-hydroxy-5-methylpiperidin-1-yl)pyrimidin-4-yl)amino)-2-cyclopropyl-3,3-difluoro-7-methyl-1,2,3,4-tetrahydro-[1,4]oxazepino[2,3-c]quinolin-6(7H)-one]: the Emax amounted to 0% at DAT (read-out: Max Response); 0.05% on GR (read-out: Max Response); 1.5% on HTR3A (read-out: Max Response); 1.31% at NMDAR (1A/2B) (read-out: Max Response); 4.81% on GABAA; 0% on nAChR(a4/b2) (read-out: Max Response). Also, the Emax on KvLQT1/minK (read-out: Max Response) came out at 3.79%. At DAT (read-out: RC50 (IC50)), the IC50 was greater than 10 µM. The EC50 on GR (read-out: RC50 (EC50)), at HTR3A (read-out: RC50 (EC50)), at NMDAR (1A/2B) (read-out: RC50 (EC50)), on nAChR(a4/b2) (read-out: RC50 (EC50)) and on KvLQT1/minK (read-out: RC50 (EC50)) was greater than 10 µM throughout. Moreover, in data set [1] (both sexes, pH 7.4), the microsomal CLint at 0.5 h, 1 µM was 8 µL/min/mg. The “CLint (HLM)” value in data set [1] is on record as “low clearance”. Also, the Dmax turned out to be 89.8% in data set [2] (OCI-Ly1, read-out: MSD degrader assay [OCI-LY1] Dmax individual replicates, single replicate values) and 91.5% in [2] (OCI-Ly1, read-out: MSD degrader assay [OCI-Ly1] Dmax, mean maximal degradation of BCL6, OCI-Ly1 cells, 2 h). Moreover, the “degradation of BCL6 (in words)” value in [2] (OCI-Ly1 MSD assay) was “potently degrading isomer”. Further, the “MSD degrader assay [OCI-Ly1] DC50” value in data set [2] (geometric mean, OCI-Ly1 cells, 2 h incubation) is “sub-nanomolar”. Moreover, the “MSD degrader assay [OCI-Ly1] Dmax” value in data set [2] (mean maximal degradation of BCL6, OCI-Ly1 cells, 2 h) is given as greater than 90%. Moreover, the “MSD degrader assay [OCI-LY1] pDC50 mean” value in [2] (mean of replicates) is 9.1465. For the same compound, the DC50 in [2] (read-out: Calculated free DC50 [OCI-Ly1], DC50 corrected with fu,media) was 88 pM; in data set [2] (read-out: MSD degrader assay [OCI-LY1] DC50 individual replicates, single replicate values) it was 1 nM and 0.9 nM (4×) and 1.5 nM and 0.5 nM (2×) and 0.8 nM and 1.2 nM and 0.3 nM and 0.6 nM (3×) and 0.4 nM (2×) and 1.3 nM; in [2] (read-out: MSD degrader assay [OCI-Ly1] DC50, geometric mean, OCI-Ly1 cells, 2 h incubation), 700 pM. Moreover, the “MSD degrader assay [OCI-LY1] Dmax individual replicates” value in [2] (single replicate values) was 90.3% and 91.7% and 95.3% (2×) and 94.5% and 93.1% and 94.4% and 94.1% and 92.7% and 96.2% and 84.1% and 84.0% and 89.6% and 88.7% and 89.5% and 92.4%.

In the case of `C[C@H]1C[C@@H](O)CN(c2ncc(Cl)c(Nc3ccc4c(c3)c3c(c(=O)n4C)OCC(F)(F)[C@H](C4CC4)N3)n2)C1` [CCT373566_9A], the “Percent Control” value on kinases (468) [3] is 100%; on kinases (468) [4], 82%; at kinases (468) [5], 100%; at kinases (468) [6], 100%; in the data set with kinases (468) [7], 98% and 100% and 83%; in the data set on kinases (468) [7] (FLT3(ITD), 1000 nM), 99%. In the data set with kinases (468) [7] (FLT3(ITD,D835V), 1000 nM), the “Percent Control” value is recorded as 75%.
